Results published in US20240327397A1, “Pesticidally Active Fused Bicyclic Heteroaromatic Compounds” (SYNGENTA CROP PROTECTION AG, priority 2021, published 2024).

Key:
Type in all cases: in vivo
[1] = tested on: Chilo suppressalis (Striped Rice Stemborer); test: Example B1: Chilo suppressalis, artificial diet in 24-well plates, L2 larvae; details: 144 h, application rate 200 ppm, 6 days after infestation, versus untreated, read-out: control (at least one of mortality, anti-feedant effect, growth inhibition)
Procedure: Example B1: Chilo suppressalis (Striped Rice Stemborer)
24-well microtiter plates with artificial diet were treated with aqueous test solutions prepared from 10'000 ppm DMSO stock solutions by pipetting. After drying, the plates were infested with L2 larvae (6-8 per well). The samples were assessed for mortality, anti-feeding effect, and growth inhibition in comparison to untreated samples 6 days after infestation. Control of Chilo suppressalis by a test sample is given when at least one of the categories mortality, anti-feedant effect, and growth inhibition is higher than the untreated sample.

[2] = tested on: Diabrotica Balteata (Corn Root Worm); test: Example B2: Diabrotica balteata, sprayed maize sprouts on agar, L2 larvae; details: 96 h, application rate 200 ppm, 4 days after infestation, versus untreated, read-out: effect in at least one of the two categories (mortality or growth inhibition)
Procedure: Example B2: Diabrotica Balteata (Corn Root Worm)
Maize sprouts placed onto an agar layer in 24-well microtiter plates were treated with aqueous test solutions prepared from 10'000 ppm DMSO stock solutions by spraying. After drying, the plates were infested with L2 larvae (6 to 10 per well). The samples were assessed for mortality and growth inhibition in comparison to untreated samples 4 days after infestation.

[3] = tested on: Plutella xylostella (Diamond Back Moth); test: Example B3: Plutella xylostella, artificial diet in 24-well plates, eggs; details: 192 h, application rate 200 ppm, 8 days after infestation, versus untreated, read-out: effect in at least one of the two categories (mortality or growth inhibition)
Procedure: Example B3: Plutella xylostella (Diamond Back Moth)
24-well microtiter plates with artificial diet were treated with aqueous test solutions prepared from 10'000 ppm DMSO stock solutions by pipetting. After drying, Plutella eggs were pipetted through a plastic stencil onto a gel blotting paper and the plate was closed with it. The samples were assessed for mortality and growth inhibition in comparison to untreated samples 8 days after infestation.

[4] = tested on: Spodoptera littoralis (Eqyptian Cotton Leaf Worm); test: Example B4: Spodoptera littoralis, sprayed cotton leaf discs, L1 larvae; details: foliar, 72 h, application rate 200 ppm, 3 days after infestation, versus untreated, read-out: control (at least one of mortality, anti-feedant effect, growth inhibition)
Procedure: Example B4: Spodoptera littoralis (Eqyptian Cotton Leaf Worm)
Cotton leaf discs were placed onto agar in 24-well microtiter plates and sprayed with aqueous test solutions prepared from 10'000 ppm DMSO stock solutions. After drying the leaf discs were infested with five L1 larvae. The samples were assessed for mortality, anti-feeding effect, and growth inhibition in comparison to untreated samples 3 days after infestation. Control of Spodoptera littoralis by a test sample is given when at least one of the categories mortality, anti-feedant effect, and growth inhibition is higher than the untreated sample.

[5] = tested on: Frankliniella occidentalis (Western Flower Thrips); test: Example B5: Frankliniella occidentalis, feeding/contact activity, sunflower leaf discs; details: foliar, 168 h, application rate 200 ppm, population of mixed ages, 7 days after infestation
Procedure: Example B5: Frankliniella occidentalis (Western Flower Thrips). Feedinq/Contact Activity
Sunflower leaf discs were placed on agar in 24-well microtiter plates and sprayed with aqueous test solutions prepared from 10'000 DMSO stock solutions. After drying the leaf discs were infested with a Frankliniella population of mixed ages. The samples were assessed for mortality 7 days after infestation.

[6] = tested on: Myzus persicae (Green Peach Aphid); test: Example B6: Myzus persicae, feeding/contact activity, sunflower leaf discs; details: foliar, 144 h, application rate 200 ppm, population of mixed ages, 6 days after infestation
Procedure: Example B6: Myzus persicae (Green Peach Aphid). Feedinq/Contact Activity
Sunflower leaf discs were placed onto agar in a 24-well microtiter plate and sprayed with aqueous test solutions prepared from 10'000 ppm DMSO stock solutions. After drying, the leaf discs were infested with an aphid population of mixed ages. The samples were assessed for mortality 6 days after infestation.

[7] = tested on: Myzus persicae (Green Peach Aphid); test: Example B7: Myzus persicae, intrinsic activity, sucrose solution under Parafilm; details: 120 h, test rate 12 ppm, 5 days after infestation
Text: Example B7: Myzus persicae (Green Peach Aphid). Intrinsic Activity
Test compounds prepared from 10'000 ppm DMSO stock solutions were applied by pipette into 24-well microtiter plates and mixed with sucrose solution. The plates were closed with a stretched Parafilm. A plastic stencil with 24 holes was placed onto the plate and infested pea seedlings were placed directly on the Parafilm. The infested plate was closed with a gel blotting paper and another plastic stencil and then turned upside down. The samples were assessed for mortality 5 days after infestation.

C[C@H](NC1=NS(C)(=O)=Nc2c(Br)cc(Br)cc21)c1nccnc1-c1cnccn1 (stereo partly drawn) [P10, 8,10-dibromo-3-methyl-3-oxo-N-[(1S)-1-(3-pyrazin-2-ylpyrazin-2-yl)ethyl]-3λ^6-thia-2,4-diazabicyclo[4.4.0]deca-1(6),2,4,7,9-pentaen-5-amine]
≥ 80%: percent control (mortality, anti-feedant effect or growth inhibition) at 200 ppm [1] | percent effect (mortality or growth inhibition) at 200 ppm [2] | percent effect (mortality or growth inhibition) at 200 ppm [3] | percent control (mortality, anti-feedant effect or growth inhibition) at 200 ppm [4] | mortality at 200 ppm [5] | mortality at 200 ppm [6] | mortality at 12 ppm [7]

C[C@H](NC1=NS(C)(=O)=Nc2c1cc(Cl)cc2C(F)(F)F)c1ncnn1-c1ccc(C#N)cn1 (some centres unmarked) [P16]
≥ 80%: percent control (mortality, anti-feedant effect or growth inhibition) at 200 ppm [1] | percent effect (mortality or growth inhibition) at 200 ppm [2] | percent effect (mortality or growth inhibition) at 200 ppm [3] | percent control (mortality, anti-feedant effect or growth inhibition) at 200 ppm [4] | mortality at 12 ppm [7]

C[C@H](NC1=NS(C)(=O)=Nc2c1cc(Cl)cc2C(F)(F)F)c1ncnn1-c1ncccn1 (stereo partly drawn) [P18, 8-chloro-3-methyl-3-oxo-N-[(1S)-1-(2-pyrimidin-2-yl-1,2,4-triazol-3-yl)ethyl]-10-(trifluoromethyl)-3λ^6-thia-2,4-diazabicyclo[4.4.0]deca-1(6),2,4,7,9-pentaen-5-amine]
≥ 80%: percent control (mortality, anti-feedant effect or growth inhibition) at 200 ppm [1] | percent effect (mortality or growth inhibition) at 200 ppm [2] | percent effect (mortality or growth inhibition) at 200 ppm [3] | percent control (mortality, anti-feedant effect or growth inhibition) at 200 ppm [4] | mortality at 12 ppm [7]

C[C@H](NC1=NS(C)(=O)=Nc2c(Br)cc(Br)cc21)c1ncnn1-c1ncccn1 (stereo partly drawn) [P1, 8,10-dibromo-3-methyl-3-oxo-N-[(1S)-1-(2-pyrimidin-2-yl-1,2,4-triazol-3-yl)ethyl]-3λ^6-thia-2,4-diazabicyclo[4.4.0]deca-1(6),2,4,7,9-pentaen-5-amine]
≥ 80%: percent control (mortality, anti-feedant effect or growth inhibition) at 200 ppm [1] | percent effect (mortality or growth inhibition) at 200 ppm [2] | percent effect (mortality or growth inhibition) at 200 ppm [3] | percent control (mortality, anti-feedant effect or growth inhibition) at 200 ppm [4] | mortality at 200 ppm [5] | mortality at 12 ppm [7]

C[C@H](NC1=NS(C)(=O)=Nc2c(Br)cc(Br)cc21)c1ncnn1-c1ccc(C#N)cn1 (stereo partly drawn) [P5, 6-[5-[(1S)-1-[(8,10-dibromo-3-methyl-3-oxo-3λ^6-thia-2,4-diazabicyclo[4.4.0]deca-1(10),2,4,6,8-pentaen-5-yl)amino]ethyl]-1,2,4-triazol-1-yl]pyridine-3-carbonitrile]
≥ 80%: percent control (mortality, anti-feedant effect or growth inhibition) at 200 ppm [1] | percent effect (mortality or growth inhibition) at 200 ppm [2] | percent effect (mortality or growth inhibition) at 200 ppm [3] | percent control (mortality, anti-feedant effect or growth inhibition) at 200 ppm [4]

C[C@H](NC1=NS(C)(=O)=Nc2c1cc(Cl)cc2C(F)(F)F)c1nccnc1-c1cnccn1 (stereo partly drawn) [P19, 8-chloro-3-methyl-3-oxo-N-[(1S)-1-(3-pyrazin-2-ylpyrazin-2-yl)ethyl]-10-(trifluoromethyl)-3λ^6-thia-2,4-diazabicyclo[4.4.0]deca-1(6),2,4,7,9-pentaen-5-amine]
≥ 80%: percent control (mortality, anti-feedant effect or growth inhibition) at 200 ppm [1] | percent effect (mortality or growth inhibition) at 200 ppm [2] | percent effect (mortality or growth inhibition) at 200 ppm [3] | percent control (mortality, anti-feedant effect or growth inhibition) at 200 ppm [4]

CC(NC1=CS(C)(=O)=Nc2c1cc(C(F)(F)F)cc2C(F)(F)F)c1ncnn1-c1ncccn1 (centres unmarked) [P2, 3-methyl-3-oxo-N-[1-(2-pyrimidin-2-yl-1,2,4-triazol-3-yl)ethyl]-8,10-bis(trifluoromethyl)-3λ^6-thia-2-azabicyclo[4.4.0]deca-1(6),2,4,7,9-pentaen-5-amine]
≥ 80%: percent control (mortality, anti-feedant effect or growth inhibition) at 200 ppm [1] | percent effect (mortality or growth inhibition) at 200 ppm [2] | percent effect (mortality or growth inhibition) at 200 ppm [3] | percent control (mortality, anti-feedant effect or growth inhibition) at 200 ppm [4]

C[C@H](NC1=NS(C)(=O)=Nc2c(Cl)cc(C(F)(F)F)cc21)c1ncnn1-c1ncccn1 (stereo partly drawn) [P13, 10-chloro-3-methyl-3-oxo-N-[(1S)-1-(2-pyrimidin-2-yl-1,2,4-triazol-3-yl)ethyl]-8-(trifluoromethyl)-3λ^6-thia-2,4-diazabicyclo[4.4.0]deca-1(6),2,4,7,9-pentaen-5-amine]
≥ 80%: percent effect (mortality or growth inhibition) at 200 ppm [2] | percent effect (mortality or growth inhibition) at 200 ppm [3] | percent control (mortality, anti-feedant effect or growth inhibition) at 200 ppm [4] | mortality at 200 ppm [5] | mortality at 12 ppm [7]

CC(NC1=NS(C)(=O)=Nc2c(Br)cc(Br)cc21)c1ncnn1-c1ccc(C#N)cn1 (centres unmarked) [P4, 6-[5-[1-[(8,10-dibromo-3-methyl-3-oxo-3λ^6-thia-2,4-diazabicyclo[4.4.0]deca-1(10),2,4,6,8-pentaen-5-yl)amino]ethyl]-1,2,4-triazol-1-yl]pyridine-3-carbonitrile]
≥ 80%: percent control (mortality, anti-feedant effect or growth inhibition) at 200 ppm [1] | percent effect (mortality or growth inhibition) at 200 ppm [2] | percent effect (mortality or growth inhibition) at 200 ppm [3] | percent control (mortality, anti-feedant effect or growth inhibition) at 200 ppm [4]
